Assay results from patent publication US20250114326A1, “POLAR MARINE-DERIVED MACROCYCLIC LACTAM COMPOUND, AND PREPARATION METHOD THEREFOR AND USE THEREOF” (RENJI HOSPITAL, SCHOOL OF MEDICINE, SHANGHAI JIAO TONG …, priority 2021, published 2025).
Where two headings read alike, the source gives them in different places.

System: inflammatory cytokine IL-6
Assay: Inhibition of cytokine IL-6 in PMA-differentiated, LPS-treated THP-1 cells (Cytometric Bead Array, flow cytometry)
Format: cell-based, human
Settings: PMA 160 nM 36 h, compound 2 h then LPS 24 h, IL-6 in culture solution by CBA, read-out: Half maximal inhibitory concentration (IC50) value on inflammatory cytokine IL-6
Experimental: Culture of THP-1 cells and treatment of THP-1 cells with test compounds in combination with LPS
THP-1 cells (from the Cell Bank of the Chinese Academy of Sciences) were cultured in RPMI-1640 medium containing 10% FBS in a 5% CO2 incubator at 37° C. 100 μL of a cell suspension in a complete culture medium containing antibiotics (100 μg/mL streptomycin and 100 U/mL penicillin) and PMA (final concentration: 160 nM) was added to each well in a 96-well plate (about 5×10^4 cells/well). After 36 h of treatment, the cells achieved adherent growth.
The PMA-containing medium was discarded and then the cells were washed with 1×PBS solution. Serum-free RPMI-1640 (2 mL) was added and the cells were treated for 12 h. The active compounds to be tested were diluted into five concentration gradients and added to each well for a 2-hour treatment. The culture solutions containing the compounds were retained and the cells were treated with a serum-free medium ([…]) containing LPS (1 mg/mL) for 24 h.
The content assay for cytokine IL-6 in the culture solution was performed according to the Human Inflammation Cytometric Bead Array (CBA) method in the manufacturer's instructions. After the above-mentioned cytokine levels were determined on the FACSCalibur flow cytometer, the FCAP Array software was used to analyze the results.

| Molecule | IC50 (Homo sapiens) | IC50 (listed as control drug) | IC50 |
| --- | --- | --- | --- |
| CC[C@H](C)C[C@]1(O)C(=O)C[C@@H](O)[C@@]2(C)C=C(C)[C@H](O2)/C(C)=C/C(C)=C/C[C@@H](CO)OC(=O)[C@H](OC)[C@@H](O)CNC1=O [Compound 1, Somalactam A] | 10.54 ± 0.06 µM | – | – |
| CC[C@H](C)C[C@@]1(O)C(=O)NC[C@H](O)[C@@H](OC)C(=O)OC[C@@H](O)C/C=C(\C)[C@H]2C(C)=C[C@]3(C)O[C@@H]4C[C@@]1(O)O[C@]4(C)[C@H]23 [Compound 2, Somalactam B] | 11.1 ± 0.13 µM | – | – |
| Tocilizumab [reference compound] | – | 6.02 ± 0.12 µM | 9.22 ± 0.12 µM |

Continued by falling IC50 (Homo sapiens), values first:

| IC50 (Homo sapiens) | IC50 (listed as control drug) | IC50 | Molecule |
| --- | --- | --- | --- |
| 9.12 ± 0.15 µM | – | – | CC[C@H](C)C[C@@]1(O)C(=O)NC[C@H](O)[C@@H](OC)C(=O)O[C@@H]2CO[C@]3(C)C=C(C)[C@@H](/C(C)=C/[C@@]4(C)O[C@]1(O)C[C@H]4O)[C@@H]3C2 [Compound 4, Somalactam D] |
| 5.76 ± 1.18 µM | – | – | CC[C@H](C)C[C@@]1(O)C(=O)NC[C@H](O)[C@@H](OC)C(=O)O[C@H](CO)C/C=C(\C)[C@@H]2C(C)=C[C@@]3(C)O[C@@H]4C[C@@]1(O)O[C@]4(C)[C@@H]23 [Compound 3, Somalactam C] |
